Results published in US20240132503A1, “SALT FORM AND CRYSTAL FORM OF PYRAZOLE SUBSTITUTED IMIDAZO[1,2- A]QUINOXALINE DERIVATIVE” (OCUMENSION THERAPEUTICS (SUZHOU) CO., LTD, priority 2021, published 2024).

Legend:
Syk protein kinase = Syk protein kinase (Homo sapiens (Human), UniProt P43405); assay: In vitro evaluation of inhibitory activity against Syk protein kinase (HTRF KinEASE TK); assay type: biochemical
Description: Test purpose: to measure an inhibitory IC50 value of the compounds against Syk protein kinase.
Test material: Syk kinase (Invitrogen, PV3857) • DTT (Sigma#43815): dithiothreitol • ATP (Sigma#A7699): triphosadenine • MgCl2 (Sigma#63020): magnesium chloride • MnCl2 (Sigma#M1787): manganese chloride • EDTA (Invitrogen#15575-020): ethylenediaminetetraacetic acid • HEPES Buffer (Invitrogen#15630-080): zwitterionic sulfonic acid buffer • HTRF® KinEASE™ TK (Cisbio#62TK0PEC, 20000 tests): HTRF kinase kit • Low volume, 384-well, white polystyrene plate (Greiner#784075) • 384-well microplates (Greiner#781946) • Centrifuge (Eppendorf#5810R) • Micropipette (Eppendorf) • Pipette (Greiner) • Pipettor (Eppendorf) • Mutidorp injector • POD 810 Plate Assembler Fully Automatic Microplate Pretreatment System • Envision Reader […]

[1] = target: KDR (VEGFR-2) protein kinase (Homo sapiens (Human), UniProt P35968); assay: In vitro evaluation of inhibitory activity against KDR (VEGFR-2) protein kinase (ADP-Glo kinase assay); assay type: biochemical
Description: The KDR Kinase Kit was designed to use Kinase-Glo® MAX as a teat reagent to measure KDR kinase activity, and the IC50 value of the compound was used as an indicator for compound screening and analysis.
ADP-GLO™ Kinase Assay is an assay reaction for measuring adenosine diphosphate formed by the kinase by using a luminescent kinase; and ADP was converted into ATP, that is, conversion into a light signal via Ultra-Glo™ Luciferase. The light signal was positively correlated with the quantity of ADP and kinase activity. Such assay was very suitable for determining the activity of the compound, making the assay ideal for primary screening and a kinase selectivity assay. The ADP-Glo™ Kinase Assay can be used to monitor the activity of almost all ADP-producing enzymes (for example, a kinase or ATPase): • 1) Enzyme, substrate, ATP and inhibitors were diluted in kinase buffer; • 2) 384-well plate: 1 μL of inhibitor or (5% dimethyl sulfoxide solution) 2 μL of KDR enzyme, and 2 μL of substrate/ATP mixture; • 3) The 384-well plate was incubated at room temperature for 60 minutes; • 4) 5 μL of ADP-GLO™ reagent was added; • 5) The 384-well plate was incubated at room temperature for 40 minutes; • 6) 10 μL of kinase test reagent was added; • 7) The 384-well plate was incubated at room temperature for 30 minutes; • 8) Lumination (integration time: 0.5 to 1 second) was recorded. […]

[2] = Solid stability test of crystal form A (influencing factors and accelerated conditions; HPLC purity and XRPD); assay type: physicochemical
Experimental: All the stability samples were subjected to XRPD detection to detect changes in crystal forms.
About 10 mg of the crystal form was accurately weighed, put in a dry and clean glass bottle, spread into a thin layer, covered with aluminum foil with small pierced holes, and put under conditions of the influencing factor test and accelerated conditions. A sample under sunlight conditions (1200000 Lux visible light, and 200 W ultraviolet light) was put in a transparent glass bottle and fully exposed, and a sample used for XRPD detection was put separately.
After the sample was taken out by a time point, the glass bottle was covered with a lid, sealed with parafilm, and stored in a refrigerator at −20° C. During sample preparation, the sample was taken out of the refrigerator and recovered to room temperature, 10 mL of 80% ACN was added, and the sample was dissolved by ultrasonication for 2 minutes to obtain a solution at a concentration of about 1 mg/mL. A liquid phase was used for sample analysis, and the test result was compared with an initial test result on Day 0.
Preparation of a standard solution on Day 0: About 10 mg of the crystal form was weighed, put into a 10 mL volumetric flask, dissolved in 80% acetonitrile and diluted to the scale.
In addition, all the stability samples were subjected to the HPLC tests.

[3] = 40° C., relative humidity 75%, opened, 1 months
[4] = 40° C., relative humidity 75%, opened, 2 months
[5] = 40° C., relative humidity 75%, opened, 3 months
[6] = 60° C., relative humidity 75%, opened, 1 month
[7] = 60° C., relative humidity 75%, opened, 2 months
[8] = Control group kept in the dark, wrapped with tin foil
[9] = High humidity (relative humidity 92.5%, opened), 1 week
[10] = High humidity (relative humidity 92.5%, opened), 2 week
[11] = High temperature (60° C., opened), 1 week
[12] = High temperature (60° C., opened), 2 week
[13] = Visible light + ultraviolet light (ICH condition), visible 1200000 lux·hrs

Chain of KDR (VEGFR-2) protein kinase (P35968 20-1356): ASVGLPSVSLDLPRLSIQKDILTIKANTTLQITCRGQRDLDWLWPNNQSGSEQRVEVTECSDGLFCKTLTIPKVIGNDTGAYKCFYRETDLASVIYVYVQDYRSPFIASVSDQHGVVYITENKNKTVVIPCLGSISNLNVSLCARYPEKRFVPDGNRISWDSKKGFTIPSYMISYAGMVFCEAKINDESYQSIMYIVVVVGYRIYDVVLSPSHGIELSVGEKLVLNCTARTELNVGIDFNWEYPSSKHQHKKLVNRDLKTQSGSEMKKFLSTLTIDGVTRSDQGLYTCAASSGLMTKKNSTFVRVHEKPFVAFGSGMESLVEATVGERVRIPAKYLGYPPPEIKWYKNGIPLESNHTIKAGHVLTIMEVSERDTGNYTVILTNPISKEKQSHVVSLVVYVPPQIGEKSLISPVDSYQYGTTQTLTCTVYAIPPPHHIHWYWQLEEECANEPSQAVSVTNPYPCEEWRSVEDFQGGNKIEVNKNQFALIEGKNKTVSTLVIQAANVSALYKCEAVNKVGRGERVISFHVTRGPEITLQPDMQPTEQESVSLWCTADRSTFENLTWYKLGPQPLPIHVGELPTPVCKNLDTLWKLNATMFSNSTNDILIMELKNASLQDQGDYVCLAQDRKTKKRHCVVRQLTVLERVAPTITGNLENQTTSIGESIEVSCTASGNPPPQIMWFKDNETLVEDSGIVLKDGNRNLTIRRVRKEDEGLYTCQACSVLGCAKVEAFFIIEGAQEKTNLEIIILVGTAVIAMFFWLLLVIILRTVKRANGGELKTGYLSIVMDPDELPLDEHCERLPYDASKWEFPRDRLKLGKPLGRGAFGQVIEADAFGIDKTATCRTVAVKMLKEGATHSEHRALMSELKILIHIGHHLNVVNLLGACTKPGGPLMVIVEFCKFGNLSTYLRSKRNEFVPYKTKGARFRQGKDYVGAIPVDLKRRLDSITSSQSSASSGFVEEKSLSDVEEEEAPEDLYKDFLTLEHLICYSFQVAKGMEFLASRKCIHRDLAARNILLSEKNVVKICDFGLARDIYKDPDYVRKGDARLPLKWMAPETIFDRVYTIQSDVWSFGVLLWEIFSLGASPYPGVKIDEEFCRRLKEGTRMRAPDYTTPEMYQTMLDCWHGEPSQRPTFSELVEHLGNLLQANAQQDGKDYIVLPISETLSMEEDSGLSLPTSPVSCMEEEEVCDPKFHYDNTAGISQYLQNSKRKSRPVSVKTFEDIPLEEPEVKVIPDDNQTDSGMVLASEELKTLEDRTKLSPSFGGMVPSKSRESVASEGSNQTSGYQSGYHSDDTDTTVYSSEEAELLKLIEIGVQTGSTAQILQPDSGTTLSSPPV

c1cn2c(n1)c(Nc1ccc(N3CCOCC3)cc1)nc1ccc(-c3cn[nH]c3)cc12
IC50 (Syk protein kinase; ATP 2 μM): 25 nM
inhibitory activity against Syk (Syk protein kinase; conclusion in words): good inhibitory activity
IC50 [1]: 28 nM
inhibitory activity against KDR (VEGFR-2) ([1]; conclusion in words): good inhibitory activity
Crystal form (XRPD) [2, 3]: Crystal form A
Purity (area %) [2, 3]: 99.12 area %
Crystal form (XRPD) [2, 4]: Crystal form A
Purity (area %) [2, 4]: 99.06 area %
Crystal form (XRPD) [2, 5]: Crystal form A
Purity (area %) [2, 5]: 99.04 area %
Crystal form (XRPD) [2, 6]: Crystal form A
Purity (area %) [2, 6]: 99.15 area %
Crystal form (XRPD) [2, 7]: Crystal form A
Purity (area %) [2, 7]: 99.03 area %
Crystal form (XRPD) [2, 8]: Crystal form A
Purity (area %) [2, 8]: 99.12 area %
Crystal form (XRPD) ([2]; Day 0): Crystal form A
Purity (area %) ([2]; Day 0): 99.05 area %
Crystal form (XRPD) [2, 9]: Crystal form A
Purity (area %) [2, 9]: 99.03 area %
Crystal form (XRPD) [2, 10]: Crystal form A
Purity (area %) [2, 10]: 99.11 area %
Crystal form (XRPD) [2, 11]: Crystal form A
Purity (area %) [2, 11]: 98.99 area %
Crystal form (XRPD) [2, 12]: Crystal form A
Purity (area %) [2, 12]: 99.10 area %
Crystal form (XRPD) [2, 13]: Crystal form A
Purity (area %) [2, 13]: 99.12 area %
change in purity and crystal form ([2]; all stability conditions (high temperature, high humidity and sunlight)): no significant change
chemical stability ([2]; conclusion in words): good chemical stability
